Laboratory results: patent publication US8324133B2, “Fungicide 2-pyridyl-methylene-carboxamide derivatives” (Bayer Cropscience AG, priority 2005, dated 2012)

test: logP by HPLC on reversed-phase column (C 18), EEC Directive 79/831 Annex V.A8; type: physicochemical; conditions: C 18, 40° C., 0.1% aqueous formic acid and acetonitrile gradient
Experimental: Temperature: 40° C.; Mobile phases: 0.1% aqueous formic acid and acetonitrile; linear gradient from 10% acetonitrile to 90% acetonitrile.
Calibration was carried out using unbranched alkan-2-ones (comprising 3 to 16 carbon atoms) with known logP values (determination of the logP values by the retention times using linear interpolation between two successive alkanones).

| LogP | Compound |
| --- | --- |
| 4.17 | O=C(c1ccsc1I)N(Cc1ncc(C(F)(F)F)cc1Cl)C1CC1 [Compound 15] |
| 4.34 | Cc1nc(C(F)F)c(C(=O)N(C2CC2)C(C)c2ncc(C(F)(F)F)cc2Cl)s1 (centres unmarked) [Compound 27] |
| 3.1 | Cn1cc(C(=O)N(Cc2cc(C(F)(F)F)cc(Cl)n2)C2CC2)c(C(F)F)n1 [Compound 37] |
| 2.83 | COC(=O)C(c1ncc(C(F)(F)F)cc1Cl)N(C(=O)c1c(C)nn(C)c1F)C1CC1 (centres unmarked) [Compound 48] |
| 3.78 | CC(c1ncc(C(F)(F)F)cc1Cl)N(C(=O)c1cn(C)nc1C(F)F)C1CC1 (centres unmarked) [Compound 35] |
| 4.15 | Cn1cc(C(=O)N(Cc2ncc(C(F)(F)F)cc2Cl)C2CCCC2)c(C(F)(F)F)c1 [Compound 82] |
| 2.43 | COc1nn(C)cc1C(=O)N(Cc1ncc(C(F)(F)F)cc1Cl)C1CC1 [Compound 39] |
| 4.48 | Cc1onc(-c2ccc(Cl)cc2)c1C(=O)N(Cc1ncc(C(F)(F)F)cc1Cl)C1CC1 [Compound 69] |
| 3.41 | Cc1nc(C(F)F)c(C(=O)N(Cc2ncc(C(F)(F)F)cc2Cl)C2CC2)s1 [Compound 26] |
| 3.32 | COc1nn(C)cc1C(=O)N(Cc1ncc(C(F)(F)F)cc1Cl)C1CCCC1 [Compound 80] |
| 3.26 | Cn1cc(C(=O)N(Cc2ncc(C(F)(F)F)cc2Cl)C2CC2)c(C(F)(F)F)n1 [Compound 41] |
| 3.11 | CCc1nn(C)c(F)c1C(=O)N(Cc1ncc(C(F)(F)F)cc1Cl)C1CC1 [Compound 59] |
| 2.79 | Cc1nn(C)cc1C(=O)N(C1CC1)C(C)c1ncc(C(F)(F)F)cc1Cl (centres unmarked) [Compound 56] |
| 3.55 | Cn1cc(C(=O)N(Cc2ncc(C(F)(F)F)cc2Cl)C2CC2)c(C(F)(F)F)c1 [Compound 17] |
| 3.15 | Cc1cc(C(=O)N(C2CC2)C(C)c2ncc(C(F)(F)F)cc2Cl)nn1C (centres unmarked) [Compound 33] |
| 5.9 | Cc1cc(C(=O)N(Cc2ncc(C(F)(F)F)cc2Cl)C2CC(C)CC(C)(C)C2)c(C)o1 (centres unmarked) [Compound 83] |
| 2.95 | CCC(c1cc(C(F)(F)F)cc(Cl)n1)N(C(=O)c1c(C)nn(C)c1F)C1CC1 (centres unmarked) [Compound 47] |
| 3.78 | Cc1ccoc1C(=O)N(Cc1ncc(C(F)(F)F)cc1Cl)C1CC1 [Compound 3] |
| 3.32 | Cc1cc(C(=O)N(Cc2ncc(C(F)(F)F)cc2Cl)C2CC2)no1 [Compound 64] |
| 4.26 | Cc1cc(C(=O)N(Cc2ncc(C(F)(F)F)cc2Cl)C2CC2)c(C(F)(F)F)o1 [Compound 6] |
| 4.01 | CC(c1ncc(C(F)(F)F)cc1Cl)N(C(=O)c1cn(C)nc1C(F)(F)F)C1CC1 (centres unmarked) [Compound 42] |
| 4.80 | Cc1nc(C(F)(F)F)c(C(=O)N(C2CC2)C(C)c2ncc(C(F)(F)F)cc2Cl)s1 (centres unmarked) [Compound 30] |

| LogP | Compound |
| --- | --- |
| 5.19 | Cc1cc(C(=O)N(C2CC2)C(C)c2ncc(C(F)(F)F)cc2Cl)c(C(F)(F)F)o1 (centres unmarked) [Compound 7] |
| 3.46 | Cc1nc(C(=O)N(C2CC2)C(C)c2ncc(C(F)(F)F)cc2Cl)c(C)o1 (centres unmarked) [Compound 23] |
| 3.11 | Cc1nc(C(=O)N(Cc2ncc(C(F)(F)F)cc2Cl)C2CC2)c(C)o1 [Compound 22] |
| 4.22 | Cc1ccoc1C(=O)N(C1CC1)C(C)c1ncc(C(F)(F)F)cc1Cl (centres unmarked) [Compound 4] |
| 3.86 | Cc1nc(C(F)(F)F)c(C(=O)N(Cc2ncc(C(F)(F)F)cc2Cl)C2CC2)s1 [Compound 25] |
| 3 | Cc1occc1C(=O)N(Cc1ncc(C(F)(F)F)cc1Cl)C1CC1 [Compound 8] |
| 3 | Cc1noc(C)c1C(=O)N(Cc1ncc(C(F)(F)F)cc1Cl)C1CC1 [Compound 68] |
| 3.92 | Cn1ncc(C(=O)N(Cc2ncc(C(F)(F)F)cc2Cl)C2CC2)c1Cl [Compound 57] |
| 4.25 | Cc1nc(C(F)F)c(C(=O)N(Cc2ncc(C(F)(F)F)cc2Cl)C2CCCC2)s1 [Compound 81] |
| 3.55 | O=C(c1ccnn1-c1ccccc1)N(Cc1ncc(C(F)(F)F)cc1Cl)C1CC1 [Compound 63] |
| 3.22 | Cc1ncoc1C(=O)N(C1CC1)C(C)c1ncc(C(F)(F)F)cc1Cl (centres unmarked) [Compound 21] |
| 3.15 | CCn1nc(C)c(C(=O)N(Cc2ncc(C(F)(F)F)cc2Cl)C2CC2)c1F [Compound 58] |
| 2.82 | Cn1cc(C(=O)N(Cc2ncc(C(F)(F)F)cc2Cl)C2CC2)c(I)n1 [Compound 43] |
| 2.53 | Cc1nn(C)cc1C(=O)N(Cc1ncc(C(F)(F)F)cc1Cl)C1CC1 [Compound 55] |
| 3.67 | Cc1nn(C)c(F)c1C(=O)N(C1CC1)C(C)c1ncc(C(F)(F)F)cc1Cl (centres unmarked) [Compound 46] |
| 5.09 | CC(c1ncc(C(F)(F)F)cc1Cl)N(C(=O)c1sccc1I)C1CC1 (centres unmarked) [Compound 12] |
| 3.15 | Cc1ncc(C(=O)N(Cc2ncc(C(F)(F)F)cc2Cl)C2CC2)s1 [Compound 29] |
| 3.63 | Cc1cc(C(=O)N(C2CC2)C(C)c2ncc(C(F)(F)F)cc2Cl)no1 (centres unmarked) [Compound 65] |
| 3.68 | Cn1cc(C(=O)N(Cc2ncc(C(F)(F)F)cc2Cl)C2CCCC2)c(C(F)F)n1 [Compound 79] |
| 2.75 | CCOc1nn(C)cc1C(=O)N(Cc1ncc(C(F)(F)F)cc1Cl)C1CC1 [Compound 60] |
| 4.95 | CC(c1ncc(C(F)(F)F)cc1Cl)N(C(=O)c1ccsc1I)C1CC1 (centres unmarked) [Compound 16] |

| Compound | LogP |
| --- | --- |
| CC(c1ncc(C(F)(F)F)cc1Cl)N(C(=O)c1ccco1)C1CC1 (centres unmarked) [Compound 2] | 3.6 |
| Cc1ncoc1C(=O)N(Cc1ncc(C(F)(F)F)cc1Cl)C1CC1 [Compound 20] | 2.85 |
| O=C(c1ccno1)N(Cc1ncc(C(F)(F)F)cc1Cl)C1CC1 [Compound 71] | 3.72 |
| O=C(c1ccco1)N(Cc1ncc(C(F)(F)F)cc1Cl)C1CC1 [Compound 1] | 3.2 |
